Reference: ChEMBL document CHEMBL1955862, “Novel N'-benzylidene benzofuran-3-carbohydrazide derivatives as antitubercular and antifungal agents” (2012)
Values after ≈ are worked out from the molar mass of the structure shown.

Key:
[1] = test system: Candida albicans; assay: Antifungal activity against Candida albicans; assay type: functional
[2] = test system: Mycobacterium tuberculosis; assay: Antituberculosis activity against Mycobacterium tuberculosis H37Rv by REMA method; assay type: functional

Structure (SMILES): O=C(N/N=C/c1ccccc1)c1coc2ccccc12
- MIC [1]: > 250 µg/mL
- MIC [2]: 2 µg/mL (≈ 7.57 µM)

Structure (SMILES): COc1ccc(/C=N/NC(=O)c2coc3ccccc23)c(OC)c1
- MIC [1]: > 250 µg/mL
- MIC [2]: 128 µg/mL (≈ 395 µM)

Structure (SMILES): O=C(N/N=C/c1ccc(O)cc1)c1coc2ccccc12
- MIC [1]: > 250 µg/mL
- MIC [2]: 64 µg/mL (≈ 228 µM)

Structure (SMILES): O=C(N/N=C/c1ccccc1O)c1coc2ccccc12
- MIC [1]: > 250 µg/mL
- MIC [2]: 64 µg/mL (≈ 228 µM)

Structure (SMILES): O=C(N/N=C/c1ccc(Cl)cc1)c1coc2ccccc12
- MIC [1]: > 250 µg/mL
- MIC [2]: 128 µg/mL (≈ 428 µM)

Structure (SMILES): Cc1ccc(/C=N/NC(=O)c2coc3ccccc23)cc1
- MIC [1]: > 250 µg/mL
- MIC [2]: 128 µg/mL (≈ 460 µM)

Structure (SMILES): O=C(N/N=C/c1ccc([N+](=O)[O-])cc1)c1coc2ccccc12
- MIC [1]: > 250 µg/mL
- MIC [2]: 128 µg/mL (≈ 414 µM)

Structure (SMILES): O=C(N/N=C/c1cc(Cl)cc(Cl)c1O)c1coc2ccccc12
- MIC [1]: 31.2 µg/mL (≈ 89.5 µM)
- MIC [2]: 128 µg/mL (≈ 367 µM)

Structure (SMILES): O=C(N/N=C/c1cccc2ccccc12)c1coc2ccccc12
- MIC [1]: 125 µg/mL (≈ 398 µM)
- MIC [2]: 128 µg/mL (≈ 407 µM)

Structure (SMILES): O=C(N/N=C/c1c(Cl)cccc1Cl)c1coc2ccccc12
- MIC [1]: > 250 µg/mL
- MIC [2]: 128 µg/mL (≈ 384 µM)

Structure (SMILES): O=C(N/N=C/c1ccccc1)c1coc2c(Cl)cc(Cl)cc12
- MIC [1]: > 250 µg/mL
- MIC [2]: 2 µg/mL (≈ 6 µM)

Structure (SMILES): COc1ccc(/C=N/NC(=O)c2coc3c(Cl)cc(Cl)cc23)c(OC)c1
- MIC [1]: > 250 µg/mL
- MIC [2]: 64 µg/mL (≈ 163 µM)

Structure (SMILES): O=C(N/N=C/c1ccc(O)cc1)c1coc2c(Cl)cc(Cl)cc12
- MIC [1]: > 250 µg/mL
- MIC [2]: 128 µg/mL (≈ 367 µM)

Structure (SMILES): O=C(N/N=C/c1ccccc1O)c1coc2c(Cl)cc(Cl)cc12
- MIC [1]: > 250 µg/mL
- MIC [2]: 32 µg/mL (≈ 91.6 µM)

Structure (SMILES): O=C(N/N=C/c1ccc(Cl)cc1)c1coc2c(Cl)cc(Cl)cc12
- MIC [1]: > 250 µg/mL
- MIC [2]: 128 µg/mL (≈ 348 µM)

Structure (SMILES): Cc1ccc(/C=N/NC(=O)c2coc3c(Cl)cc(Cl)cc23)cc1
- MIC [1]: < 15.6 µg/mL
- MIC [2]: 128 µg/mL (≈ 369 µM)

Structure (SMILES): O=C(N/N=C/c1ccc([N+](=O)[O-])cc1)c1coc2c(Cl)cc(Cl)cc12
- MIC [1]: 125 µg/mL (≈ 331 µM)
- MIC [2]: 128 µg/mL (≈ 338 µM)

Structure (SMILES): O=C(N/N=C/c1cc(Cl)cc(Cl)c1O)c1coc2c(Cl)cc(Cl)cc12
- MIC [1]: 250 µg/mL (≈ 598 µM)
- MIC [2]: 128 µg/mL (≈ 306 µM)

Structure (SMILES): O=C(N/N=C/c1cccc2ccccc12)c1coc2c(Cl)cc(Cl)cc12
- MIC [1]: < 15.6 µg/mL
- MIC [2]: 128 µg/mL (≈ 334 µM)

Structure (SMILES): O=C(N/N=C/c1c(Cl)cccc1Cl)c1coc2c(Cl)cc(Cl)cc12
- MIC [1]: 62.5 µg/mL (≈ 155 µM)
- MIC [2]: 128 µg/mL (≈ 318 µM)

Structure (SMILES): NNC(=O)c1ccncc1 [ISONIAZID]
- MIC [2]: 0.25 µg/mL (≈ 1.82 µM)
